From paper PMC11891075, “TRIM66-HP1γ remodels the chromatin through phase separation” (Biophysics Reports, 2025) come the findings set out here.

Residues, ends and D or L forms follow the SMILES beside them.

The target of test [1] is HP1γ chromo shadow domain (CSD), residues 110-176 (human) (UniProt Q13185). In words: ITC; MicroCal PEAQ-ITC, 20 °C, Buffer B (20 mmol/L Tris-HCl, 150 mmol/L NaCl, pH 7.5); TRIM66 peptide titrated into HP1γ-CSD. On the technique in general: Isothermal titration calorimetry measures the heat released or taken up as one component is titrated into another.
HP1γ chromo shadow domain (CSD), residues 110-176 (human), sequence (Q13185 110-176): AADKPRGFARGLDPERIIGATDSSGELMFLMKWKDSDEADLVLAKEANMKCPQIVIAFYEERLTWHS
For test [2], the system named is condensates formed by mEGFP-TRIM66 and mCherry-HP1γ in U2OS cells. In words: Live-cell imaging of condensates before and after 1,6-hexanediol. The note with it: 10% 1,6-hexanediol for 5 min, 10 independent fields from one cell dish. The format is cell-based. The protocol:
U2OS cells and HeLa cells were cultured in high-glucose DMEM supplemented with 10% fetal bovine serum and 1% penicillin-streptomycin at 37 °C in a humidified incubator containing 5% CO2. Following the manufacturer's instructions, cells were transfected with plasmid DNA using Lipofectamine 3000 (Thermo Fisher Scientific).
Genes encoding human TRIM66 or its constructs were cloned into the pmEGFP-C3 (Clontech) vector with an N-terminal mEGFP tag or the Flag vector with an N-terminal Flag tag. Genes encoding human HP1γ or HP1γ^L172A/W174A were cloned into the pcDNA3.1 vector with an N-terminal mCherry tag.
U2OS cells were cultured on 35-mm glass bottom dishes (Wuxi NEST Biotechnology Co., Ltd) coated with poly-D-lysine (Sigma-Aldrich). L-15 medium without phenol red (Thermo Fisher Scientific) was used during live-cell imaging to maintain a suitable environment for cell growth, and the temperature was kept at approximately 37 °C. Images were obtained with a Nikon Ti fluorescent inverted microscope with a 100× 1.4 NA objective; an XY Piezo Z stage (Applied Scientific Instrumentation); a spinning disk confocal unit (Yokogawa); and an electron multiplier CCD camera (Andor) controlled by IQ3 live-cell imaging software (Andor). Images collected with this system were 16-bit and consisted of 512 × 512 pixels, and the pixel size was 0.12 μm.

Another test deals with T1, HP1γ-CSD (WT) (Homo sapiens, UniProt Q13185).
T1 construct: HP1γ CSD (110–176aa) and TRIM66 PxVxL motif peptide(856–868aa), mixed at a molar ratio of 1:1.2; made in house
T1 sequence (Q13185 110-176): as above
In words: Isothermal titration calorimetry (ITC), HP1γ-CSD wild type. The format is binding. The note with it: 20 °C, 20 mmol/L Tris-HCl, 150 mmol/L NaCl, pH 7.5, Fig. 2F. The protocol: (§1) HP1γ_CSD (residues 110–176) was amplified by PCR from the human brain cDNA library and cloned into the pET-28a(+) expression vector (Novagen), contained an N-terminal 6× His tag and a tobacco etch virus (TEV) protease cleavage site. All mutants of HP1 were generated using a MutantBEST kit (Takara) and confirmed by DNA sequencing. All the proteins were expressed in Escherichia coli BL21 (DE3) cells (Novagen) cultured in LB medium at 37 °C to OD600 = 0.8, then shifted to 16 °C and induced with 0.5 mmol/L isopropyl β-D-1-thiogakactopyranoside (IPTG) for 24 h. Bacterial pellets were resuspended in Buffer A (20 mmol/L Tris-HCl, 500 mmol/L NaCl, pH 7.5) and lysed by sonication on ice. Then, soluble proteins were purified with a Ni^2+-chelating column (Cytiva Life Sciences) and a Superdex 75 column (Cytiva Life Sciences). After being cleaved by TEV protease overnight at 4 °C to remove the 6× His tag, the purified protein was concentrated to ∼10 mg/mL in Buffer B (20 mmol/L Tris-HCl, 150 mmol/L NaCl, pH 7.5) and stored at –80 °C. […]
(§2) Isothermal titration calorimetry (ITC) assays were performed using a MicroCal PEAQ-ITC calorimeter (Cytiva Life Sciences), and all experiments were carried out at 20 °C. […] The concentrations of the proteins were determined spectrophotometrically. […]

For another test, the target named is T2, HP1γ-CSD^W174A (Homo sapiens, UniProt Q13185, W174A).
T2 construct: HP1γ CSD (110–176aa) and TRIM66 PxVxL motif peptide(856–868aa), mixed at a molar ratio of 1:1.2; His6 (N); made in house
T2 sequence (Q13185 110-176 W174A): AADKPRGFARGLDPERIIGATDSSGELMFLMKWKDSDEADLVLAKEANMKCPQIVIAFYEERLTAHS
In words: ITC, HP1γ-CSD W174A mutant. It counts as binding. The following applies: 20 °C, 20 mmol/L Tris-HCl, 150 mmol/L NaCl, pH 7.5, Fig. 2F. The protocol:
as §1, §2

The target of the next test is T3, HP1γ-CSD^L172A (Homo sapiens, UniProt Q13185, L172A).
T3 construct: HP1γ CSD (110–176aa) and TRIM66 PxVxL motif peptide(856–868aa), mixed at a molar ratio of 1:1.2; His6 (N); made in house
T3 sequence (Q13185 110-176 L172A): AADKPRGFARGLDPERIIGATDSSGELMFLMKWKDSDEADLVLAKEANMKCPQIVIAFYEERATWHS
The test can be described thus: ITC, HP1γ-CSD L172A mutant. It counts as binding. The following applies: 20 °C, 20 mmol/L Tris-HCl, 150 mmol/L NaCl, pH 7.5, Fig. 2F. The protocol: as §1, §2

The next test concerns the target T4, HP1γ-CSD^D131A (Homo sapiens, UniProt Q13185, D131A).
T4 construct: HP1γ CSD (110–176aa) and TRIM66 PxVxL motif peptide(856–868aa), mixed at a molar ratio of 1:1.2; His6 (N); made in house
In words: ITC, HP1γ-CSD D131A mutant. The note with it: 20 °C, 20 mmol/L Tris-HCl, 150 mmol/L NaCl, pH 7.5, Fig. 2G. The format is binding. The protocol: as §1, §2

A further test deals with T5, HP1γ-CSD^I165A (Homo sapiens, UniProt Q13185, I165A).
T5 construct: HP1γ CSD (110–176aa) and TRIM66 PxVxL motif peptide(856–868aa), mixed at a molar ratio of 1:1.2; His6 (N); made in house
T5 sequence (Q13185 110-176 I165A): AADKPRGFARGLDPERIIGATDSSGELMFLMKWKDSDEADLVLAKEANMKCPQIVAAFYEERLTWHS
The test can be described thus: ITC, HP1γ-CSD I165A mutant (monomeric). The note with it: 20 °C, 20 mmol/L Tris-HCl, 150 mmol/L NaCl, pH 7.5, Fig. 2F. It counts as binding. The protocol: as §1, §2

The target of a further test is T6, HP1γ-CSD^R171A (Homo sapiens, UniProt Q13185, R171A).
T6 construct: HP1γ CSD (110–176aa) and TRIM66 PxVxL motif peptide(856–868aa), mixed at a molar ratio of 1:1.2; His6 (N); made in house
T6 sequence (Q13185 110-176 R171A): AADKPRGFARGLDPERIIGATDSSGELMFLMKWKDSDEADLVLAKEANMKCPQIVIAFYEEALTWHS
In words: ITC, HP1γ-CSD R171A mutant. The note with it: 20 °C, 20 mmol/L Tris-HCl, 150 mmol/L NaCl, pH 7.5, Fig. 2G. It counts as binding. The protocol: as §1, §2

For test [3], the system named is HP1γ and nuclear extract (NE). The test can be described thus: GST pull-down assay. The format is binding, human. The note with it: glutathione-Sepharose, 20 mmol/L Tris, 150 mmol/L NaCl, 1 mmol/L DTT, pH 7.5, 6 h at 4 °C; SDS-PAGE and western blot. The protocol: The gene for human TRIM66 full-length (residues 1–1050) was purchased from Life Technologies. All the DNA fragments for the human TRIM66 (residues 820–909, 840–909) were amplified by PCR. The proteins were cloned into a modified pGEX4T-1vector with a GST tag and TEV protease cleavage site. The proteins were expressed in Escherichia coli BL21 (DE3) cells and induced with 0.5 mmol/L IPTG for 24 h at 16 °C. The protein was purified by GST column (Cytiva Life Sciences), followed by TEV protease cleavage and size-exclusion chromatography on a Hiload 16/60 Superdex 200 column (Cytiva Life Sciences).
Nuclear extracts (NEs) were prepared as described with slight modifications. HeLa cells (1 × 10^8 cells/mL) were suspended with 4 mL of Buffer A comprising 0.5 mmol/L EDTA, 2 mmol/L MgCl2, 0.1% (v/v) protease inhibitor (PI) (Nakalai Tesque, Japan), 2 mmol/L β-mercaptoethanol, 10 mmol/L Tris–HCl, pH 7.8, and centrifuged at 1500 g for 2 min at 4 °C. […] The concentrations of NEs were determined by DNA concentrations calculated from the absorbance at 260 nm.
The GST alone control, GST-tagged protein (TRIM66^820–909) was bound to glutathione-Sepharose beads (Cytiva Life Sciences) in a buffer of 20 mmol/L Tris, 200 mmol/L NaCl, and 1 mmol/L DTT at pH 7.5, and incubated at 4 °C for 4 h. […] The proteins captured by beads were eluted and analyzed by SDS-PAGE and western blot.

T4 sequence (Q13185 110-176 D131A): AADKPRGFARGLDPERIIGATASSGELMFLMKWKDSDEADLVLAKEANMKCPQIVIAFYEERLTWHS

The term Kd denotes the equilibrium constant for the complex coming apart. In test [1], “TRIM66 PxVxL motif peptide (residues 856-868)” returned a Kd of 280 nM and a stoichiometry N (HP1γ-CSD per TRIM66 peptide (2:1)) of 2.

`OCCCCCCO` [1,6-hexanediol]: the “effect on mEGFP-TRIM66 and mCherry-HP1γ condensates” value in test [2] was “depolymerized and the fluorescence signal was evenly distributed in the entire nucleus”.

As to `CC[C@H](C)[C@H](NC(=O)[C@H](CCCCN)NC(=O)[C@H](Cc1c[nH]cn1)NC(=O)[C@@H](N)CCC(=O)O)C(=O)N1CCC[C@H]1C(=O)N[C@@H](Cc1ccc(O)cc1)C(=O)N[C@H](C(=O)N[C@@H](CCCNC(=N)N)C(=O)N[C@@H](CC(C)C)C(=O)N[C@@H](CCC(=O)O)C(=O)N[C@@H](CCCNC(=N)N)C(=O)N[C@@H](CC(C)C)C(=O)N[C@@H](CCCCN)C(=O)O)C(C)C` [TRIM66^856-868] (H-EHKIPYVRLERLK-OH), the Kd at HP1γ-CSD (WT) stood at 280 ± 20 nM; at HP1γ-CSD^D131A, 1360 ± 109 nM; at HP1γ-CSD^R171A, 2050 ± 38 nM. Besides, the KD result on HP1γ-CSD^W174A, at HP1γ-CSD^L172A and at HP1γ-CSD^I165A was “No binding” each time.

B1: GST-TRIM66^820-909: GST-tagged TRIM66 residues 820–909, which contains HP1γ-CSD binding motif (protein, UniProt O15016 820-909, looked up, fragment)
chain: NLISDSPQAMASLASDHPQAGPSLMSGHTQAVPSLATCPLQSIPPVSDMQPETGSSSSSGRTSGSLCPRDGADPSLENALCKMESEDSTR
modifications: GST tag
Turning to B1, the “complex formation with HP1γ and NE (GST pull-down)” value in test [3] is recorded as “can form stable complexes”.
